GI50 data for 25 compounds are collected here from US20240246940A1, “HETEROARYL DERIVATIVE COMPOUND AND USE THEREOF” (VORONOI INC., priority 2021, published 2024).

SMILES strings stand for the structures.

The subject of the first experiment is SK-BR-3 cells (HER2 overexpressing cell line). Put plainly: SK-BR-3 cell proliferation inhibitory activity (CellTiter-Glo, 120 hours). The format is cell-based. Conditions: Homo sapiens. On the procedure:
(§1) To evaluate the cell proliferation inhibitory activity of the compound according to the present invention on HER2 and EGFR kinases, the following method was performed using HER2 overexpressing cell lines (SK-BR-3, BT-474, and N-87) and EGFR expressing cell line (HaCaT).
(§2) McCOY'S 5A supplemented with 10% FBS was used for SK-BR-3 cells, RPMI-1640 medium supplemented with 20% FBS was used for BT-474 cancer cells, and RPMI-1640 medium supplemented with 10% FBS was used for N-87 cancer cells. DMEM supplemented with 10% FBS was used for HaCaT cells.
(§3) For SK-BR-3 cells, 5000 cells were aliquoted into each well of a white clear bottom 96 well plate (Corning) 48 hours before treatment with the compounds of Examples. For BT-474 cells, 5000 cells were aliquoted into each well of a white clear bottom 96 well plate (Corning) 48 hours before treatment with the compounds of Examples. For N-87 cells, 5000 cells were aliquoted into each well of a white clear bottom 96 well plate (Corning) 24 hours before treatment with the compounds of Examples. For HaCaT cells, 3000 cells were aliquoted into each well of a white clear bottom 96 well plate (Corning) 24 hours before treatment with the compounds of Examples. For SK-BR-3 cells and BT-474 cells, the compounds of Examples were diluted in dimethyl sulfoxide (three-fold dilution, a total of 11 concentrations) and injected each in an amount of 1 μl to a final concentration of 0.2 nM to 10 μM. For N-87 cells, the compounds of Examples were diluted in dimethyl sulfoxide (five-fold dilution, a total of 11 concentrations) and injected each in an amount of 0.5 μl to a final concentration of […] to 5 μM. For HaCaT cells, the compounds of Examples were diluted in dimethyl sulfoxide (three-fold dilution, a total of 11 concentrations) and injected each in an amount of 0.5 μl to a final concentration of 0.8 nM to 45 μM. For the measurement of living cells, the cells were stored at room temperature for 10 minutes using CellTiter-Glo cell viability reagent (Promega) after a certain period of time (SK-BR-3: 120 hours, BT-474: 120 hours, N-87: 72 hours, and HaCaT: 72 hours) post treatment with the compounds of Examples, and the luminescence intensity thereof was measured using a reader (SynergyNeo, Biotek). Each test was repeated three times.
(§4) The result values were calculated as a cell growth rate (%) compared to those of the control group. A graph was created using the GraphPad Prism version 5.0 program, and GI50 values were calculated.
A word on the GI50: it is the concentration that inhibits growth by half. As to `C=CC(=O)N1CCC(Oc2cc3c(Nc4cc(-c5ccco5)ccc4OC4CCOCC4)ncnc3cc2OC)CC1` [Example 258, 1-(4-((4-((5-(furan-2-yl)-2-((tetrahydro-2H-pyran-4-yl)oxy)phenyl)amino)-7-methoxyquinazolin-6-yl)oxy)piperidin-1-yl)prop-2-en-1-one], the GI50 lay within 0.15 to 1 µM.

With `C=CC(=O)Nc1cc2c(Nc3cc(-c4ccco4)ccc3OC)ncnc2cc1OCCOC` [Example 275, N-(4-((5-(furan-2-yl)-2-methoxyphenyl)amino)-7-(2-methoxyethoxy)quinazolin-6-yl)acrylamide], the 50% growth inhibitory concentration (GI50) was ≤ 0.15 µM.

Regarding `C=CC(=O)N1CC(Oc2cc3c(Nc4cc(-c5ccc6occc6c5)ccc4OC)ncnc3cc2OC)C1` [Example 37, 1-(3-((4-((5-(benzofuran-5-yl)-2-methoxyphenyl)amino)-7-methoxy-quinazolin-6-yl)oxy)azetidin-1-yl)prop-2-en-1-one], the concentration for 50% growth inhibition (GI50) was ≤ 0.15 µM.

As for `C=CC(=O)N1CC(Oc2cc3c(Nc4cc(-c5ccn6ncnc6c5)ccc4OCC)ncnc3cc2OC)C1` [Example 56, 1-(3-((4-((5-([1,2,4]triazolo [1,5-a]pyridin-7-yl)-2-ethoxyphenyl)amino)-7-methoxy-quinazolin-6-yl)oxy)azetidin-1-yl)prop-2-en-1-one], the concentration for 50% growth inhibition (GI50) lay in the range of 0.15 to 1 µM.

`C=C(CN(C)C)C(=O)N1CCC(Oc2cc3c(Nc4cc(-c5ccco5)ccc4OC)ncnc3cc2OC)CC1` [Example 121, 2-((dimethylamino)methyl)-1-(4-((4-((5-(furan-2-yl)-2-methoxyphenyl)amino)-7-methoxy-quinazolin-6-yl)oxy)piperidin-1-yl)prop-2-en-1-one]: the GI50 was > 1 µM.

Consider `C=CC(=O)N1CCC(Oc2cc3c(Nc4cc(-c5cccn6ccnc56)ccc4OC)ncnc3cc2OC)CC1` [Example 70, 1-(4-((4-((5-(imidazo[1,2-a]pyridin-8-yl)-2-methoxyphenyl)amino)-7-methoxy-quinazolin-6-yl)oxy)piperidin-1-yl)prop-2-en-1-one], for which the GI50 lay within 0.15 to 1 µM.

Consider `C=CC(=O)N1CC(Oc2cc3c(Nc4cc(-c5ccc(F)cc5)ccc4OC)ncnc3cc2OC)C1` [Example 7, 1-(3-((4-((4′-fluoro-4-methoxy-[1,1′-biphenyl]-3-yl)amino)-7-methoxy-quinazolin-6-yl)oxy)azetidin-1-yl)prop-2-en-1-one], for which the GI50 was ≤ 0.15 µM.

As to `C=CC(=O)N1CC(Oc2cc3c(Nc4cc(-c5cncs5)ccc4OC)ncnc3cc2OC)C1` [Example 46, 1-(3-((7-methoxy-4-((2-methoxy-5-(thiazol-5-yl)phenyl)amino)quinazolin-6-yl)oxy)azetidin-1-yl)prop-2-en-1-one], the 50% growth inhibitory concentration (GI50) fell in the range of 0.15 to 1 µM.

For the compound `C=CC(=O)N1CC(Oc2cc3c(Nc4cc(-c5ccoc5)ccc4OC)ncnc3cc2OC)C1` [Example 45, 1-(3-((4-((5-(furan-3-yl)-2-methoxyphenyl)amino)-7-methoxy-quinazolin-6-yl)oxy)azetidin-1-yl)prop-2-en-1-one], the GI50 was ≤ 0.15 µM.

As for `C=CC(=O)N1CCC(Oc2cc3c(Nc4cc(-c5ccn6ncnc6c5)ccc4OC)ncnc3cc2OC)CC1` [Example 69, 1-(4-((4-((5-([1,2,4]triazolo[1,5-a]pyridin-7-yl)-2-methoxyphenyl)amino)-7-methoxy-quinazolin-6-yl)oxy)piperidin-1-yl)prop-2-en-1-one], the GI50 lay within 0.15 to 1 µM.

Regarding `C=CC(=O)N1CCC(Oc2cc3c(Nc4cc(-c5ccccc5)ccc4OC)ncnc3cc2OC)CC1` [Example 65, 1-(4-((7-methoxy-4-((4-methoxy-[1,1′-biphenyl]-3-yl)amino)quinazolin-6-yl)oxy)piperidin-1-yl)prop-2-en-1-one], the 50% growth inhibitory concentration (GI50) was ≤ 0.15 µM.

For `C=CC(=O)N1CC(Oc2cc3c(Nc4cc(-c5ccnn5C)ccc4OC)ncnc3cc2OC)C1` [Example 42, 1-(3-((7-methoxy-4-((2-methoxy-5-(1-methyl-1H-pyrazol-5-yl)phenyl)amino)quinazolin-6-yl)oxy)azetidin-1-yl)prop-2-en-1-one], the concentration for 50% growth inhibition (GI50) lay within 0.15 to 1 µM.

As to `C=CC(=O)N1CC(Oc2cc3c(Nc4cc(-c5cnc6ccnn6c5)ccc4OC)ncnc3cc2OC)C1` [Example 32, 1-(3-((7-methoxy-4-((2-methoxy-5-(pyrazolo[1,5-a]pyrimidin-6-yl)phenyl)amino)quinazolin-6-yl)oxy)azetidin-1-yl)prop-2-en-1-one], the GI50 lay in the range of 0.15 to 1 µM.

As to `C=CC(=O)N1CCC(Oc2cc3c(Nc4cc(-c5ccoc5)ccc4OC)ncnc3cc2OC)C1` (stereo not drawn) [Example 64, 1-(3-((4-((5-(furan-3-yl)-2-methoxyphenyl)amino)-7-methoxy-quinazolin-6-yl)oxy)pyrrolidin-1-yl)prop-2-en-1-one], the GI50 lay in the range of 0.15 to 1 µM.

`C=CC(=O)N1CC(Oc2cc3c(Nc4cc(-c5ccsc5)ccc4OC)ncnc3cc2OC)C1` [Example 47, 1-(3-((7-methoxy-4-((2-methoxy-5-(thiophen-3-yl)phenyl)amino)quinazolin-6-yl)oxy)azetidin-1-yl)prop-2-en-1-one]: the 50% growth inhibitory concentration (GI50) is ≤ 0.15 µM.

As to `C=CC(=O)N1CCC(Oc2cc3c(Nc4cc(-c5cccs5)ccc4OC)ncnc3cc2OC)C1` (stereo not drawn) [Example 63, 1-(3-((7-methoxy-4-((2-methoxy-5-(thiophen-2-yl)phenyl)amino)quinazolin-6-yl)oxy)pyrrolidin-1-yl)prop-2-en-1-one], the GI50 lay within 0.15 to 1 µM.

As for `C=CC(=O)N1CCC(Oc2cc3c(Nc4cc(-c5ccccc5)ccc4OC)ncnc3cc2OC)C1` (stereo not drawn) [Example 58, 1-(3-((7-methoxy-4-((4-methoxy-[1,1′-biphenyl]-3-yl)amino)quinazolin-6-yl)oxy)pyrrolidin-1-yl)prop-2-en-1-one], the GI50 fell in the range of 0.15 to 1 µM.

With `C=CC(=O)N1CCC(Oc2cc3c(Nc4cc(-c5ccoc5)ccc4OC)ncnc3cc2OC)CC1` [Example 81, 1-(4-((4-((5-(furan-3-yl)-2-methoxyphenyl)amino)-7-methoxy-quinazolin-6-yl)oxy)piperidin-1-yl)prop-2-en-1-one], the GI50 is 0.15 to 1 µM.

With `C=CC(=O)N1CC(Oc2cc3c(Nc4cc(-c5cccs5)ccc4OC)ncnc3cc2OC)C1` [Example 43, 1-(3-((7-methoxy-4-((2-methoxy-5-(thiophen-2-yl)phenyl)amino)quinazolin-6-yl)oxy)azetidin-1-yl)prop-2-en-1-one], the GI50 is ≤ 0.15 µM.

On to `COc1ccc(-c2ccco2)cc1Nc1ncnc2cc(OC)c(OC3CCN(C(=O)/C=C/CN(C)C)CC3)cc12` [Example 120, (E)-4-(dimethylamino) 1-(4-((4-((5-(furan-2-yl)-2-methoxyphenyl)amino)-7-methoxy-quinazolin-6-yl)oxy)piperidin-1-yl)but-2-en-1-one], for which the GI50 was in the range of 0.15 to 1 µM.

As to `C=CC(=O)N1CC(Oc2cc3c(Nc4cc(-c5ccccc5)ccc4OC)ncnc3cc2OC)C1` [Example 5, 1-(3-((7-methoxy-4-((4-methoxy-[1,1′-biphenyl]-3-yl)amino)quinazolin-6-yl)oxy)azetidin-1-yl)prop-2-en-1-one], the GI50 was ≤ 0.15 µM.

Regarding `C=CC(=O)N1CC(Oc2cc3c(Nc4cc(-c5ccco5)ccc4OC)ncnc3cc2OC)C1` [Example 44, 1-(3-((4-((5-(furan-2-yl)-2-methoxyphenyl)amino)-7-methoxy-quinazolin-6-yl)oxy)azetidin-1-yl)prop-2-en-1-one], the GI50 is ≤ 0.15 µM.

On to `C=CC(=O)N1CC(Oc2cc3c(Nc4cc(-c5cccnc5)ccc4OC)ncnc3cc2OC)C1` [Example 6, 1-(3-((7-methoxy-4-((2-methoxy-5-(pyridin-3-yl)phenyl)amino)quinazolin-6-yl)oxy)azetidin-1-yl)prop-2-en-1-one], for which the GI50 lay in the range of 0.15 to 1 µM.

On to `C=CC(=O)N1CC(Oc2cc3c(Nc4cc(-c5ccn6ncnc6c5)ccc4OC)ncnc3cc2OC)C1` [Example 30, 1-(3-((4-((5-([1,2,4]triazolo [1,5-a]pyridin-7-yl)-2-methoxyphenyl)amino)-7-methoxy-quinazolin-6-yl)oxy)azetidin-1-yl)prop-2-en-1-one], for which the 50% growth inhibitory concentration (GI50) was in the range of 0.15 to 1 µM.

The next experiment relates to HaCaT cells (EGFR expressing cell line). Description: HaCaT cell proliferation inhibitory activity (CellTiter-Glo, 72 hours). It counts as cell-based. Conditions: Homo sapiens. On the procedure: as §1, §2, §3, §4
A general note: Cellular ATP, detected with luciferase, serves as a proxy for viable cell number.
Consider `C=CC(=O)N1CCC(Oc2cc3c(Nc4cc(-c5ccco5)ccc4OC4CCOCC4)ncnc3cc2OC)CC1` [Example 258, 1-(4-((4-((5-(furan-2-yl)-2-((tetrahydro-2H-pyran-4-yl)oxy)phenyl)amino)-7-methoxyquinazolin-6-yl)oxy)piperidin-1-yl)prop-2-en-1-one], for which the GI50 was ≤ 0.15 µM.

Consider `C=CC(=O)Nc1cc2c(Nc3cc(-c4ccco4)ccc3OC)ncnc2cc1OCCOC` [Example 275, N-(4-((5-(furan-2-yl)-2-methoxyphenyl)amino)-7-(2-methoxyethoxy)quinazolin-6-yl)acrylamide], for which the concentration for 50% growth inhibition (GI50) was ≤ 0.15 µM.

Take `C=CC(=O)N1CC(Oc2cc3c(Nc4cc(-c5ccn6ncnc6c5)ccc4OCC)ncnc3cc2OC)C1` [Example 56, 1-(3-((4-((5-([1,2,4]triazolo [1,5-a]pyridin-7-yl)-2-ethoxyphenyl)amino)-7-methoxy-quinazolin-6-yl)oxy)azetidin-1-yl)prop-2-en-1-one]: the 50% growth inhibitory concentration (GI50) was > 1 µM.

For the compound `C=C(CN(C)C)C(=O)N1CCC(Oc2cc3c(Nc4cc(-c5ccco5)ccc4OC)ncnc3cc2OC)CC1` [Example 121, 2-((dimethylamino)methyl)-1-(4-((4-((5-(furan-2-yl)-2-methoxyphenyl)amino)-7-methoxy-quinazolin-6-yl)oxy)piperidin-1-yl)prop-2-en-1-one], the 50% growth inhibitory concentration (GI50) is ≤ 0.15 µM.

On to `C=CC(=O)N1CCC(Oc2cc3c(Nc4cc(-c5cccn6ccnc56)ccc4OC)ncnc3cc2OC)CC1` [Example 70, 1-(4-((4-((5-(imidazo[1,2-a]pyridin-8-yl)-2-methoxyphenyl)amino)-7-methoxy-quinazolin-6-yl)oxy)piperidin-1-yl)prop-2-en-1-one], for which the 50% growth inhibitory concentration (GI50) was > 1 µM.

On to `C=CC(=O)N1CCC(Oc2cc3c(Nc4cc(-c5ccc(C)o5)ccc4OC)ncnc3cc2OC)CC1` [Example 86, 1-(4-((7-methoxy-4-((2-methoxy-5-(5-methylfuran-2-yl)phenyl)amino)quinazolin-6-yl)oxy)piperidin-1-yl)prop-2-en-1-one], for which the GI50 fell in the range of 0.15 to 1 µM.
